This note sets out measurements from patent publication US20080261970A1, “Sufonamides and Uses Thereof” (ELIXIR PHARMACEUTICALS, INC., priority 2004, published 2008).

No end group written: not given here.

For this assay, the system named is mice. The experiment in a line: fast refeed (fast-refeeding) assay. In kind it is in vivo. The protocol: In vivo assays. Exemplary in vivo assays include the fast-refeeding assay described in Example 1 and as follows.
Food is removed at 6 pm for an overnight (˜16 hour) fast. Beginning at 10 am on the next morning, mice are administered with either vehicle (e.g., saline+acetic acid, pH=5) or the compound of interest. Mice are then returned to their home cages and pre-weighed food (approximately 90 grams) is immediately returned to the food hoppers in each cage. The weight of the food remaining in the food hoppers is measured at 30 minutes, 1 hour, 2 hours, and 4 hours post compound/vehicle administration. Final body weights are then recorded for the mice.

Regarding “substance P (RPKPQQFFGLM; ends and bridges not checked; UniProt P20366 58-68, looked up)”, the feeding activity result is recorded as “alters feeding activity”.
